From ChEMBL document CHEMBL3621115, “Discovery of 6-phenylimidazo[2,1-b]thiazole derivatives as a new type of FLT3 inhibitors” (Bioorg Med Chem Lett, 2015)

Assays:
[1] = target: Receptor tyrosine-protein kinase erbB-2 (Homo sapiens, UniProt P04626); test: Inhibition of human recombinant ErbB2
[2] = target: Serine/threonine-protein kinase pim-1 (Homo sapiens, UniProt P11309); test: Inhibition of human recombinant Pim1
[3] = target: Serine/threonine-protein kinase PAK 2 (Homo sapiens, UniProt Q13177); test: Inhibition of human recombinant PAK2
[4] = target: Mitogen-activated protein kinase kinase kinase 9 (Homo sapiens, UniProt P80192); test: Inhibition of human recombinant MLK1
[5] = target: Hepatocyte growth factor receptor (Homo sapiens, UniProt P08581); test: Inhibition of human recombinant Met
[6] = Cytotoxicity against human A875 cells assessed as cell viability after 72 hrs by MTT assay; assay type: functional, cell-based; conditions: A875, 72 h
[7] = target: Platelet-derived growth factor receptor beta (Homo sapiens, UniProt P09619); test: Inhibition of human recombinant PDGFRbeta
MDA-MB-231 = test: Cytotoxicity against human MDA-MB-231 cells assessed as cell viability after 72 hrs by MTT assay; assay type: functional, cell-based; conditions: MDA-MB-231, 72 h
[8] = target: T1, Receptor-type tyrosine-protein kinase FLT3 (Homo sapiens, UniProt P36888); test: Inhibition of human recombinant Flt3
T1 sequence (P36888 whole entry): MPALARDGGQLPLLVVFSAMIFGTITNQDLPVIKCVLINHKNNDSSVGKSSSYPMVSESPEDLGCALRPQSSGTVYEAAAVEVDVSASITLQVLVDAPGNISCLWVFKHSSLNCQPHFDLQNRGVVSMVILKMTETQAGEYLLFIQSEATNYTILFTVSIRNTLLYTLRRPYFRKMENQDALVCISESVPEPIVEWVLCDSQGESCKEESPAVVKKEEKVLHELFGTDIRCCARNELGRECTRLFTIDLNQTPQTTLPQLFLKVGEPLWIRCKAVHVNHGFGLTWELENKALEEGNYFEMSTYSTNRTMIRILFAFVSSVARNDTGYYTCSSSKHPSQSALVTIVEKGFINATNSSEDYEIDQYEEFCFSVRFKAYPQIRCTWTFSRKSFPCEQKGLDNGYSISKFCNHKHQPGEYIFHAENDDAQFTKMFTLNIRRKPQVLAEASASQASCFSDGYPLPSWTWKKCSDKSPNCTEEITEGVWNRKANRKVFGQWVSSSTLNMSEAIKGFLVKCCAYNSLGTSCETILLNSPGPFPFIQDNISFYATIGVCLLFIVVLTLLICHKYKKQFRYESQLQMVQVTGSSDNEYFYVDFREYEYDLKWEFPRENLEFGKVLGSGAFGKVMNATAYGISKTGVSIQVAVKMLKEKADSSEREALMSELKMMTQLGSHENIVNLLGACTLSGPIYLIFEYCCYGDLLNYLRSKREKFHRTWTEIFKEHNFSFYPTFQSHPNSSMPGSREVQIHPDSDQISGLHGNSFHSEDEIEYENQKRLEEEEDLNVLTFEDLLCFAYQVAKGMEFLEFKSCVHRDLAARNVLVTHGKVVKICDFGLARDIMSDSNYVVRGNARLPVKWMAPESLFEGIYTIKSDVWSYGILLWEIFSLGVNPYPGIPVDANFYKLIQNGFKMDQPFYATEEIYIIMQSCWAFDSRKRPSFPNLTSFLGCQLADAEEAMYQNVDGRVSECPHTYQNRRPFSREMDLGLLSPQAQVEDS

[9] = target: Serine/threonine-protein kinase PAK 1 (Homo sapiens, UniProt Q13153); test: Inhibition of human recombinant PAK1
[10] = target: Tyrosine-protein kinase SYK (Homo sapiens, UniProt P43405); test: Inhibition of human recombinant Syk
MDA-MB-453 = test: Cytotoxicity against human MDA-MB-453 cells assessed as cell viability after 72 hrs by MTT assay; assay type: functional, cell-based; conditions: MDA-MB-453, 72 h
[11] = target: Serine/threonine-protein kinase D2 (Homo sapiens, UniProt Q9BZL6); test: Inhibition of human recombinant PKD2
[12] = target: Receptor-type tyrosine-protein kinase FLT3 (Homo sapiens) (UniProt P36888); test: Inhibition of FLT3 phosphorylation in human MV4-11 cells after 6 hrs by Western blotting analysis; assay type: cell-based
[13] = target: Vascular endothelial growth factor receptor 1 (Homo sapiens, UniProt P17948); test: Inhibition of human recombinant Flt1
[14] = target: Receptor tyrosine-protein kinase erbB-4 (Homo sapiens, UniProt Q15303); test: Inhibition of human recombinant ErbB4
[15] = target: Serine/threonine-protein kinase D1 (Homo sapiens, UniProt Q15139); test: Inhibition of human recombinant PKCmu
[16] = target: Glycogen synthase kinase-3 beta (Homo sapiens, UniProt P49841); test: Inhibition of human recombinant GSK3beta
Aurora kinase B = Aurora kinase B (Homo sapiens, UniProt Q96GD4); test: Inhibition of human recombinant Aurora-B
Chain of Aurora kinase B (Q96GD4 whole entry): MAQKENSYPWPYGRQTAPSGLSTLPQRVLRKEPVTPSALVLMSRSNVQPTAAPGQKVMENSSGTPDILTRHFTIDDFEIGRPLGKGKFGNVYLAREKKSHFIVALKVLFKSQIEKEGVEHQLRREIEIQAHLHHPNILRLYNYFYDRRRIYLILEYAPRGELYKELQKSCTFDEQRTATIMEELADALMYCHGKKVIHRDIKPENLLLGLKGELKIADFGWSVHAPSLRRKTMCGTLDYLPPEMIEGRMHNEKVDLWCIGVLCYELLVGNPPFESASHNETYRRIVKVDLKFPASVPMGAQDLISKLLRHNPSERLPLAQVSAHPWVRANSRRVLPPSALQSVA

[17] = target: Ribosomal protein S6 kinase alpha-1 (Homo sapiens, UniProt Q15418); test: Inhibition of human recombinant Rsk1
Myotonin-protein kinase = Myotonin-protein kinase (Homo sapiens, UniProt Q09013); test: Inhibition of human recombinant DMPK
[18] = target: Tyrosine-protein kinase ABL1 (Homo sapiens, UniProt P00519); test: Inhibition of human recombinant Abl
Chain of Tyrosine-protein kinase ABL1 (P00519 whole entry): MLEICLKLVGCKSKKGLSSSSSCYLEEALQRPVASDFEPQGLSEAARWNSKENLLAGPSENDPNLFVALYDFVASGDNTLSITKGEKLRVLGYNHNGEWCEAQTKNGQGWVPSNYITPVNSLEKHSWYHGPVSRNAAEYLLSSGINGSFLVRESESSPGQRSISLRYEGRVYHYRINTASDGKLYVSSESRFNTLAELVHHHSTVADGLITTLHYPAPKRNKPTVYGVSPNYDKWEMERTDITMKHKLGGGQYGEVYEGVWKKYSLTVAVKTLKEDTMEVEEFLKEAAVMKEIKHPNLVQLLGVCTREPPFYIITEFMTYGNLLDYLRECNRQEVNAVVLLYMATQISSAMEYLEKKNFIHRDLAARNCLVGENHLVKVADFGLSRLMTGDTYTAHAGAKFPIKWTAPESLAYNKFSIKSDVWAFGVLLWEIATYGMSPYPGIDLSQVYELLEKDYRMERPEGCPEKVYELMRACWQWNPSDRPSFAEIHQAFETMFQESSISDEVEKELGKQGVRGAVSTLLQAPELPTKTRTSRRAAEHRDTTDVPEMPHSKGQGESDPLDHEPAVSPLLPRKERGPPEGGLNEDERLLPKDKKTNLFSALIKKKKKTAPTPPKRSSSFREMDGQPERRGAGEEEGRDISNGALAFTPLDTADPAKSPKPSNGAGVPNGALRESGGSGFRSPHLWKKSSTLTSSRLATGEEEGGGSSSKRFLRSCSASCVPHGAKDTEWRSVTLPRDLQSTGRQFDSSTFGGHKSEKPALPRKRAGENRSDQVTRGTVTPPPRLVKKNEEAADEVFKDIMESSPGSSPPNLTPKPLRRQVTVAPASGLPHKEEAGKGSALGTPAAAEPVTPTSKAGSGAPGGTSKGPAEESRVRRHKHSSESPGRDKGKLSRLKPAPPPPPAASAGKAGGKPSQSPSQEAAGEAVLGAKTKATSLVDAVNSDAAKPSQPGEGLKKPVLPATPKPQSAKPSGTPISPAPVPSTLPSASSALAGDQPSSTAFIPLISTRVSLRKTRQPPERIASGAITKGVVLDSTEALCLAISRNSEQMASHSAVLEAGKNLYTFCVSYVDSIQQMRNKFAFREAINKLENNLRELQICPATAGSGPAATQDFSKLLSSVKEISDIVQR

[19] = target: Cytoplasmic tyrosine-protein kinase BMX (Homo sapiens, UniProt P51813); test: Inhibition of human recombinant Bmx
Chain of Cytoplasmic tyrosine-protein kinase BMX (P51813 whole entry): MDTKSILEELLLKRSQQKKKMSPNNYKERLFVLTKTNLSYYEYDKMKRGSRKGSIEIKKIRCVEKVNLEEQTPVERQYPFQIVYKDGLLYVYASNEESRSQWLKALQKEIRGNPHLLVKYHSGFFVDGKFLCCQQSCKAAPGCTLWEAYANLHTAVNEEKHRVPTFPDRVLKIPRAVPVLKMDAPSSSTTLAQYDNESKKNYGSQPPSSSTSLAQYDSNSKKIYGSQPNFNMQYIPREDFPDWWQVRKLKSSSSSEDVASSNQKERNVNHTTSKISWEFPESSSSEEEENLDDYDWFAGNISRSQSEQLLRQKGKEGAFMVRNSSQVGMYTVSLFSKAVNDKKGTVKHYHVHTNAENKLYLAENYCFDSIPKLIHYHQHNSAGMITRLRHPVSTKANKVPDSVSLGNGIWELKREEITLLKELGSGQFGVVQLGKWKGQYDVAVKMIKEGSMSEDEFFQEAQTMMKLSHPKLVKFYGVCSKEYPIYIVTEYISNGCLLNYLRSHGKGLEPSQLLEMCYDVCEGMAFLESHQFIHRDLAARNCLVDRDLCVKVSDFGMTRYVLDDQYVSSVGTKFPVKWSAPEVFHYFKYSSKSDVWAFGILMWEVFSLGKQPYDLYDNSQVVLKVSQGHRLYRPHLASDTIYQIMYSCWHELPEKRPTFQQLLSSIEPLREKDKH

[20] = Cytotoxicity against human OCI-LY19 cells assessed as cell viability after 72 hrs by MTT assay; assay type: functional, cell-based; conditions: OCI-LY19, 72 h
[21] = target: Tyrosine-protein kinase Lck (Homo sapiens, UniProt P06239); test: Inhibition of human recombinant Lck
[22] = target: Calcium/calmodulin-dependent protein kinase type IV (Homo sapiens, UniProt Q16566); test: Inhibition of human recombinant CaMK4
[23] = target: Epidermal growth factor receptor (Homo sapiens, UniProt P00533); test: Inhibition of human recombinant EGFR
Chain of Epidermal growth factor receptor (P00533 whole entry): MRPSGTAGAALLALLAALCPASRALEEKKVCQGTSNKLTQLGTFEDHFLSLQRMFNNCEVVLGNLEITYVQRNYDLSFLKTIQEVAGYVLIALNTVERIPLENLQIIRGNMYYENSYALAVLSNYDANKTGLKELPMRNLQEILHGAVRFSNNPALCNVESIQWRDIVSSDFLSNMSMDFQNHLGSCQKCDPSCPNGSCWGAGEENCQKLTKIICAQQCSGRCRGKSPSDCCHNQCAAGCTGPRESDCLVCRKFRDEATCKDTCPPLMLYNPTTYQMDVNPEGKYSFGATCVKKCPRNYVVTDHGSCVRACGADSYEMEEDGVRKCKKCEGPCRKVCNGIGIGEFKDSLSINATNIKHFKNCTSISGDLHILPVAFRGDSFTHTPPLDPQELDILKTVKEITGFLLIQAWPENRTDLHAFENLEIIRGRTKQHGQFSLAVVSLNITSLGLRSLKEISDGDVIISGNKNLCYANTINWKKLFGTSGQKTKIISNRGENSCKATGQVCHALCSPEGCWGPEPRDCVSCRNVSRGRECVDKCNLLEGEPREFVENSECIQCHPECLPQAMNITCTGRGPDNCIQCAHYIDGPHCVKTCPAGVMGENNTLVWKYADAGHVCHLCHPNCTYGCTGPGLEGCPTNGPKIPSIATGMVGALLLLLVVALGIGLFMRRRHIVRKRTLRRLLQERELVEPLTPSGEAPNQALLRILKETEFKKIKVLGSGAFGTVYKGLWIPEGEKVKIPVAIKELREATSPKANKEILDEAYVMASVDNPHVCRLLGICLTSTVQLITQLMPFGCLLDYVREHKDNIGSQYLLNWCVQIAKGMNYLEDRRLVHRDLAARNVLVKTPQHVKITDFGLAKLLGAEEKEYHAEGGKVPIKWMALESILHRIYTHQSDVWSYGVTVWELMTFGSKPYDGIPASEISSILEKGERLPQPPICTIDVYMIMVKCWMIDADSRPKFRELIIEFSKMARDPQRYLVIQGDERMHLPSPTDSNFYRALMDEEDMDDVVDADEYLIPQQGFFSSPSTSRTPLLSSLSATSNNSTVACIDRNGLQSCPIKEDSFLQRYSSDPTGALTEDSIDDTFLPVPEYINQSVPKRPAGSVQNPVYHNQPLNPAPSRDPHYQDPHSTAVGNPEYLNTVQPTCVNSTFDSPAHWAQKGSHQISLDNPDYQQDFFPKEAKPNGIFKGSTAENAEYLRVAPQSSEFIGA

[24] = target: Cyclin-dependent kinase 7 (Homo sapiens, UniProt P50613); test: Inhibition of human recombinant CDK7
Chain of Cyclin-dependent kinase 7 (P50613 whole entry): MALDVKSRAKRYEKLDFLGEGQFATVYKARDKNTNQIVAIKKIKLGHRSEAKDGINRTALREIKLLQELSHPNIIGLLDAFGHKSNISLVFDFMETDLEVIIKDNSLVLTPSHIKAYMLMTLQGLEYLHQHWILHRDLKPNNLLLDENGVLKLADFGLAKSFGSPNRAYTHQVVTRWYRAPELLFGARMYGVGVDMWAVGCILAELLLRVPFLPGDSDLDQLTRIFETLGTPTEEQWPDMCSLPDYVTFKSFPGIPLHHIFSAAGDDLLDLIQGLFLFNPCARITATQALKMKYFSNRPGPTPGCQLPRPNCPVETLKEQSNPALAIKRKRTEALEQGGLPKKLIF

[25] = target: Tyrosine-protein kinase Lyn (Homo sapiens, UniProt P07948); test: Inhibition of human recombinant Lyn
MCF7 = test: Cytotoxicity against human MCF7 cells assessed as cell viability after 72 hrs by MTT assay; assay type: functional, cell-based; conditions: MCF7, 72 h
[26] = Cytotoxicity against human Calu6 cells assessed as cell viability after 72 hrs by MTT assay; assay type: functional, cell-based; conditions: Calu-6, 72 h
SW480 = test: Cytotoxicity against human SW480 cells assessed as cell viability after 72 hrs by MTT assay; assay type: functional, cell-based; conditions: SW480, 72 h
NCI-H1975 = test: Cytotoxicity against human NCI-H1975 cells assessed as cell viability after 72 hrs by MTT assay; assay type: functional, cell-based; conditions: NCI-H1975, 72 h
ZR-75-1 = test: Cytotoxicity against human ZR-75-1 cells assessed as cell viability after 72 hrs by MTT assay; assay type: functional, cell-based; conditions: ZR-75-1, 72 h
[27] = Cytotoxicity against human UM-UC-3 cells assessed as cell viability after 72 hrs by MTT assay; assay type: functional, cell-based; conditions: UMUC3, 72 h

Chain of Receptor tyrosine-protein kinase erbB-2 (P04626 whole entry): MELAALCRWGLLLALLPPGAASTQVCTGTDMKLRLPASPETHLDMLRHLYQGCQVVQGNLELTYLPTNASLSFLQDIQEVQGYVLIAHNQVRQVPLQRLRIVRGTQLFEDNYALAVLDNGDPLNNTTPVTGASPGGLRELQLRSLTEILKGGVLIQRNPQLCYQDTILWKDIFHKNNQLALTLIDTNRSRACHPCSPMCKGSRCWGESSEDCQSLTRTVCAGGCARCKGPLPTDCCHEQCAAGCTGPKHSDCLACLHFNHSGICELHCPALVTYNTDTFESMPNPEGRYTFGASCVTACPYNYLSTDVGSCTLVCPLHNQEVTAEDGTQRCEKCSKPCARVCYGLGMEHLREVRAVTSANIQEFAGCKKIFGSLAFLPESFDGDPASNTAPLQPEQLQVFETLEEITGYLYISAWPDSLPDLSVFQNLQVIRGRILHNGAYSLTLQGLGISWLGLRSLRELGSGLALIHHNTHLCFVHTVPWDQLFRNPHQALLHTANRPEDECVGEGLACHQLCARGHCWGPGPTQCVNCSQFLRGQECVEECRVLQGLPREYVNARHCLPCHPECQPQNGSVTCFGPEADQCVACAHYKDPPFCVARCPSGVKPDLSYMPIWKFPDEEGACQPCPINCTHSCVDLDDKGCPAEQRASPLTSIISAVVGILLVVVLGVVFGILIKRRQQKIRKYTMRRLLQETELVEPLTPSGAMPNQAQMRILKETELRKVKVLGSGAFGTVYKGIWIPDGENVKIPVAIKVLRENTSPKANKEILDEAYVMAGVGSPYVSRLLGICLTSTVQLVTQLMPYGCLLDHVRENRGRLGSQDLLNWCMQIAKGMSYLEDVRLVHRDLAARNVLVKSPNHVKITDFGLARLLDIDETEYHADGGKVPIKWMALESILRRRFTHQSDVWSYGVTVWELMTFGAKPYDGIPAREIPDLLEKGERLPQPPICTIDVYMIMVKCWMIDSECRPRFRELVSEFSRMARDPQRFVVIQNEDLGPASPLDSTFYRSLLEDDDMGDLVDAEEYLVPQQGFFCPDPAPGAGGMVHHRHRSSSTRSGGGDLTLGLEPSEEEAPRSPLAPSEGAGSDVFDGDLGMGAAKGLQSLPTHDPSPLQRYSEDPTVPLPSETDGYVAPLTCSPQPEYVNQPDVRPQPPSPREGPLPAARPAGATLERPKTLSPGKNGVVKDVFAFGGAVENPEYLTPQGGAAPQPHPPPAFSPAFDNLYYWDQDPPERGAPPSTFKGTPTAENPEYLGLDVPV

CN(C)CCCNC(=O)c1csc2nc(-c3ccc(NC(=O)Nc4cc(C(C)(C)C)on4)cc3)cn12
IC50 [1]: > 10 µM
IC50 [2]: 4.04 µM
IC50 [3]: > 10 µM
IC50 [4]: > 10 µM
IC50 [5]: > 10 µM
IC50 [6]: 10 µM
IC50 [7]: 1.98 µM
IC50 (MDA-MB-231): 10 µM
IC50 [8]: 0.022 µM
IC50 [9]: > 10 µM
IC50 [10]: > 10 µM
IC50 (MDA-MB-453): > 10 µM
IC50 [11]: > 10 µM
inhibition [12]: Dose-dependent effect
IC50 [13]: 2.83 µM
IC50 [14]: > 10 µM
IC50 [15]: > 10 µM
IC50 [16]: > 10 µM
IC50 (Aurora kinase B): > 10 µM
IC50 [17]: > 10 µM
IC50 (Myotonin-protein kinase): > 10 µM
IC50 [18]: > 10 µM
IC50 [19]: > 10 µM
IC50 [20]: 3.3 µM
IC50 [21]: > 10 µM
IC50 [22]: > 10 µM
IC50 [23]: > 10 µM
IC50 [24]: > 10 µM
IC50 [25]: > 10 µM
IC50 (MCF7): > 10 µM
IC50 [26]: 10 µM
IC50 (SW480): 10 µM
IC50 (NCI-H1975): > 10 µM
IC50 (ZR-75-1): > 10 µM
IC50 [27]: 10 µM
